Data as given in the supplement of paper PMC12137928.
Structures can show the parent of a compound that is named as a salt.

Key:
HCT116 [1] = conditions: 72 h
In short: (§1)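 HCT116 cells were seeded at 250 per well in 1536-well plates with 5 h allowed for attachment. CellTiter-Glo luminescence was normalized against vehicle (0%) and positive control (-100%) before pattern correction. The IC50 and maximal efficacy figures derive from four-parameter Hill fits.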

HCT116 [2] = assay: efficacy (maximum % inhibition of viability vs DMSO); higher = more cytotoxic; conditions: 72 h
In short: as §1

SMILES | IC50 cell viability (HCT116 [1]; ICRF193 0 nM) | IC50 cell viability (HCT116 [1]; ICRF193 200 nM) | efficacy (HCT116 [2]; ICRF193 0 nM) | efficacy (HCT116 [2]; ICRF193 200 nM)
Cc1cc(C2=NOC(c3cc(Cl)cc(Cl)c3)(C(F)(F)F)C2)ccc1C(=O)NCC(=O)NCC(F)(F)F (configuration not stated) [Fluralaner] | 18.3 µM | 29.1 µM | 96.5% | 104%
C[C@@H]1C[C@H]2[C@@H]3C[C@H](F)C4=CC(=O)C=C[C@]4(C)[C@@]3(F)[C@@H](O)C[C@]2(C)[C@@]1(OC(=O)c1ccco1)C(=O)SCF [Fluticasone furoate] | 29.1 µM | > 45.8 µM | 83.8% | –
CC(CN1c2ccccc2Sc2ccc(S(=O)(=O)N(C)C)cc21)N(C)C (configuration not stated) [Fonazine] | 22.4 µM | 35.5 µM | 56% | 70.3%
C[C@]12Cc3nonc3C[C@@H]1CC[C@@H]1[C@@H]2CC[C@@]2(C)[C@H]1CC[C@]2(C)O [Furazabol] | 18.3 µM | 23.1 µM | 46.7% | 51.4%
CC/N=C(\NCC)NCCCC[C@H](NC(=O)[C@H](CC(C)C)NC(=O)[C@@H](CCCCN/C(=N/CC)NCC)NC(=O)[C@H](Cc1ccc(O)cc1)NC(=O)[C@H](CO)NC(=O)[C@@H](Cc1cccnc1)NC(=O)[C@@H](Cc1ccc(Cl)cc1)NC(=O)[C@@H](Cc1ccc2ccccc2c1)NC(C)=O)C(=O)N1CCC[C@H]1C(=O)N[C@H](C)C(N)=O [Ganirelix] | 4.61 µM | 5.17 µM | 80.9% | 82.7%
COc1cc2ncnc(Nc3ccc(F)c(Cl)c3)c2cc1OCCCN1CCOCC1 [Gefitinib] | 20.6 µM | 29.1 µM | 86.4% | 98.2%
Nc1ccn([C@@H]2O[C@H](CO)[C@@H](O)C2(F)F)c(=O)n1 [Gemcitabine] | 0.092 µM | 0.0461 µM | 53.5% | 56%
O=c1c(-c2ccc(O)cc2)coc2cc(O)cc(O)c12 [Genistein] | > 45.8 µM | 16.4 µM | – | 42.9%
C#C[C@]1(O)CC[C@H]2[C@@H]3CCC4=CC(=O)CCC4=C3C=C[C@@]21CC [Gestrinone] | 25.9 µM | > 45.8 µM | 56.7% | –
CC[C@@]1(O)C(=O)OCc2c1cc1n(c2=O)Cc2c-1nc1ccccc1c2/C=N/OC(C)(C)C [Gimatecan] | 0.183 µM | > 45.8 µM | 48.8% | –
N[C@@H](CCC(=O)N[C@@H](CS)C(=O)NCC(=O)O)C(=O)O [Glutathione] | > 45.8 µM | 3.18 µM | – | 79.8%
CN(C)c1ccc(C(=C2C=CC(=[N+](C)C)C=C2)c2c(O)c(S(=O)(=O)[O-])cc3cc(S(=O)(=O)O)ccc23)cc1 [Green S] | 18.3 µM | 10.3 µM | 93.6% | 79.5%
COC1=CC(=O)C[C@@H](C)[C@]12Oc1c(Cl)c(OC)cc(OC)c1C2=O [Griseofulvin] | 29.1 µM | 20.6 µM | 66.1% | 65%
N=C(N)N/N=C/c1c(Cl)cccc1Cl [Guanabenz] | 23.1 µM | > 45.8 µM | 45.5% | –
CCCCN(CCCC)CCC(O)c1cc2c(Cl)cc(Cl)cc2c2cc(C(F)(F)F)ccc12 (configuration not stated) [Halofantrine] | 23.1 µM | 20.6 µM | 66.9% | 87.4%
Clc1cc(Cl)c(OCC#CI)cc1Cl [Haloprogin] | 25.9 µM | 20.6 µM | 89.7% | 93.8%
Oc1c(Cl)cc(Cl)c(Cl)c1Cc1c(O)c(Cl)cc(Cl)c1Cl [Hexachlorophene] | 2.59 µM | 6.51 µM | 82.5% | 45.6%
CCCCCCCCCCCCCCCC[N+](C)(C)C [Hexadecyltrimethylammonium bromide] | 5.8 µM | 7.3 µM | 103% | 91.6%
CC[C@H](c1ccc(O)cc1)[C@@H](CC)c1ccc(O)cc1 [Hexestrol] | 16.4 µM | 20.6 µM | 69.4% | 64.6%
CN1CCCN(C(c2ccccc2)c2ccc(Cl)cc2)CC1 (configuration not stated) [Homochlorcyclizine] | 20.6 µM | 29.1 µM | 71.7% | 84.3%
CCCCCC(=O)O[C@]1(C(C)=O)CC[C@H]2[C@@H]3CCC4=CC(=O)CC[C@]4(C)[C@H]3CC[C@@]21C [Hydroxyprogesterone caproate] | > 45.8 µM | 16.4 µM | – | 56.4%
CC1(C)C(/C=C/C=C/C=C/C=C2\N(CCCCS(=O)(=O)O)c3ccc4ccccc4c3C2(C)C)=[N+](CCCCS(=O)(=O)[O-])c2ccc3ccccc3c21 [INDOCYANINE GREEN] | 29.1 µM | > 45.8 µM | 43.6% | –
CC(=O)[C@]1(O)Cc2c(O)c3c(c(O)c2[C@@H](O[C@H]2C[C@H](N)[C@H](O)[C@H](C)O2)C1)C(=O)c1ccccc1C3=O [Idarubicin hydrochloride] | 1.64 µM | 0.58 µM | 80.9% | 78.8%
COC1=C(OC)C(=O)C(CCCCCCCCCCO)=C(C)C1=O [Idebenone] | 20.6 µM | 20.6 µM | 49.5% | 56.6%
CC[C@H](Nc1ncnc2[nH]cnc12)c1nc2cccc(F)c2c(=O)n1-c1ccccc1 [Idelalisib] | > 45.8 µM | 29.1 µM | – | 42.6%
COc1cc(C(C)=O)ccc1OCCCN1CCC(c2noc3cc(F)ccc23)CC1 [Iloperidone] | > 45.8 µM | 23.1 µM | – | 49.6%
C=CCOC(Cn1ccnc1)c1ccc(Cl)cc1Cl (configuration not stated) [Imazalil sulfate] | > 45.8 µM | 29.1 µM | – | 44.8%
